{"source": "patent US6410545B1", "about": "“Lipid lowering quinazoline dietary supplement composition” (Parker Hughes Institute, priority 1998, dated 2002)", "key": {"C57B⅙ mice [1]": {"system": "C57B⅙ mice", "experiment": "Postprandial triglyceride accumulation after 36 hour fast", "type": "in vivo", "conditions": "40 mg/kg/day for 7 days", "procedure": "FIG. 5 is a graph showing inhibition of postprandial triglyceride accumulation by WHI-P164 treatment. C57B⅙ mice were treated with WHI-P164 at 40 mg/kg/day for 7 days, and fasted 36 hours with continuing treatment. […].\n(§1) C57B⅙ and apoE-deficient mice were treated with intraperitoneal injections of 50 μl vehicle or 40 mg/kg WHI-P164 in 50 μl vehicle for 7 consecutive days, followed by a 36 hour fast to shut down intestinal chylomicron synthesis. […] Blood samples were taken at 0 and 4 hours after Triton WR1339 injection and plasma TG levels were measured enzymatically using a commercially available enzymatic kit (Sigma Chemical Co.). Alternatively, food was returned to the mice after a 36 hour fast and blood samples were collected at 0, 1, 3, 6, and 9 hours after returning the food. Accumulation of chylomicron-TG was determined as accumulation of plasma TG.\nInhibition reached statistical significance at 6 hours in vehicle treated mice having a plasma TG level of 272±25 mg/dL, n=5, as compared to a plasma TG level of 155±32 mg/dL, n=5, p=0.004 in WHI-P164 treated mice."}, "[2]": {"system": "hypercholesterolemic C57B⅙ mice", "experiment": "Serum lipoprotein profile (VLDL-C, HDL-C) by FPLC in C57B⅙ mice on cocoa butter diet", "type": "in vivo", "conditions": "for HDL-C / VLDL-C: C57B1/6, cocoa butter diet", "procedure": "Three- to four-week old C57B⅙ male mice (Taconic, Germantown, N.Y., USA) were kept in micro-isolator cages on a 12-hour day/night cycle and fed the Paigen's cocoa butter diet (15.8% fat, 1.25% cholesterol, and 0.5% sodium cholate) (Harlan Teklad, Madison, Wis., USA) for two weeks prior to initiation of lipid lowering therapy. Paigen's diet is described in Nishina et.al., 1993, J. Lipid Res. 34: 1413-1422.\nAnimals were treated with test compounds by intraperitoneal injection daily for 7 days. A range of doses was administered. Control animals received vehicle alone. The effect of quinazoline derivatives on total cholesterol, LDL, HDL, liver enzymes, and glucose was analyzed. The mice tissues were also examined histologically.\nSerum cholesterol profiles were examined by Fast Protein Liquid Chromatography (FPLC) using 100 μl of serum per run. The serum was passed over two Superose™ 6 HR 10/30 connected in tandem equilibrated in phosphate buffered saline (PBS), using the FPLC system from Pharmacia Biotech (Piscataway, N.J., USA) consisting of a controller LCC-501 plus connected to a UV detector (UV-MII), two P500 pumps, and a Frac-100 fraction collector. The FPLC was remotely controlled and operated by the FPLC director program operated on an IBM computer. The system was operated at a flow rate of 0.5 ml/minute and fractions were collected at 0.5 ml/fraction. Cholesterol concentration of each fraction was determined as described above and plotted against the fraction numbers to obtain the serum cholesterol profile.\nTo determine the serum concentrations of LDL/β-VLDL and HDL, the sums of the LDL/β-VLDL peak (fractions 29-35) and the HDL peak (fractions 53-63) were divided by 0.1. To obtain the IC50 and the minimum β-VLDL and HDL concentrations, the concentrations of β-VLDL and HDL were plotted against the dosage. Best fitted exponential decay curves were obtained using the equation: Concentration of HDL or LDL/β-VLDL=Aexp(−BX)+E, where A+E equals the concentration of HDL or LDL/β-VLDL at the dosage of 0 μg/day and E equals the mathematical minimum concentration of HDL or β-VLDL, and B equals 0.69/IC50. Best fitted curves were obtained using the Graphpad Inplot program, Graphpad Software, San Diego, Calif., USA.\nAs shown by their serum lipoprotein profiles (FIG. 1), hypercholesterolemic C57B⅙ mice preferentially accumulated cholesterol rich VLDL (171±19 mg/dL, n=4 versus 7±4 mg/dL, n=3, p=0.0008) but no changes in HDL cholesterol levels (90±9 mg/dL, n=4 versus 86±13 mg/dL, n=3, p=0.8) (Table 2). […] In WHI-P164 treated mice, serum VLDL-C decreased immediately from 171±19 mg/dL (n=4), to 99±13 mg/dL (n=4) at the 1.6 mg/kg/day dose level (P=0.02) and further decreased to 78±15 mg/dL (n=4) at the 16 mg/kg/day dose level (p=0.1) (Table 1). […] Thus, WHI-P164 was only able to reduce VLDL-C by […]."}, "C57B⅙ mice [3]": {"system": "C57B⅙ mice", "experiment": "In vivo hepatic VLDL-TG production using Triton WR1339 in C57B⅙ mice", "procedure": "as §1\nTo determine if WHI-P164 prevent hepatic TG accumulation by relieving 9 block in VLDL-TG secretion or by inhibiting upstream TG synthesis, in vivo hepatic VLDL-TG synthesis was analyzed. Synthesis was determined by following the accumulation of VLDL-TG after shutting down VLDL catabolism with Triton WR1339 injection and intestinal chylomicron synthesis with a 36 hours fast.\nC57B⅙ and apoE-deficient mice were treated with intra peritoneal injections of vehicle or 40 mg/kg WHI-P164 (in 50 μl vehicle) for 7 consecutive days, followed by a 36 hour fast to shut down intestinal chylomicron synthesis. […] Blood samples (50 μl) were taken at 0 and 4 hours after Triton WR1339 injection and plasma TG was measured enzymatically using a commercially available enzymatic kit (Sigma Chemical Co.), as previously reported (Kuipers, supra)."}}, "note": "Entries after “also recorded” stand apart in the source; their conditions may differ.", "data": [{"smiles": "COc1cc2ncnc(C(=O)c3cccc(Br)c3)c2cc1OC", "note": "[WHI-P164, 4-(3′-bromobenzoyl)-6,7-dimethoxyquinazoline]", "values": [{"measurement": "Plasma TG level", "setting": "C57B⅙ mice [1]; 6 hours after returning food to 36 hours fasted mice", "value": "155 ± 32", "unit": "mg/dL"}, {"measurement": "Postprandial triglyceride accumulation", "setting": "C57B⅙ mice [1]; C57B⅙ mice, fasted 36 hours, versus vehicle, 40 mg/kg/day", "value": "much reduced postprandial triglyceride accumulation; also recorded: Postprandial accumulation was inhibited"}, {"measurement": "HDL-C", "setting": "[2]; dose 1.6 mg/kg", "value": "93 ± 8", "unit": "mg/dL"}, {"measurement": "VLDL-C", "setting": "[2]; dose 1.6 mg/kg/day", "value": "99 ± 13", "unit": "mg/dL"}, {"measurement": "HDL-C", "setting": "[2]; dose 4.0 mg/kg", "value": "86 ± 5", "unit": "mg/dL"}, {"measurement": "VLDL-C", "setting": "[2]; dose 4.0 mg/kg", "value": "106 ± 15", "unit": "mg/dL"}, {"measurement": "HDL-C", "setting": "[2]; dose 8.0 mg/kg", "value": "81 ± 9", "unit": "mg/dL"}, {"measurement": "VLDL-C", "setting": "[2]; dose 8.0 mg/kg", "value": "101 ± 7", "unit": "mg/dL"}, {"measurement": "HDL-C", "setting": "[2]; dose 16.0 mg/kg", "value": "74 ± 10", "unit": "mg/dL"}, {"measurement": "VLDL-C", "setting": "[2]; dose 16 mg/kg/day", "value": "78 ± 15", "unit": "mg/dL"}, {"measurement": "Effect on serum HDL-C levels", "setting": "[2]; C57B⅙ mice, cocoa butter diet", "value": "did not significantly affect"}, {"measurement": "Calculated effective dose (ED50) for VLDL-C lowering", "setting": "[2]; C57B⅙ mice, cocoa butter diet, fitted exponential decay curve", "value": 0.4, "unit": "mg/kg/day"}, {"measurement": "Minimum serum VLDL-C level", "setting": "[2]; C57B⅙ mice, cocoa butter diet, mathematical minimum of fitted curve", "value": "94 ± 9", "unit": "mg/dL"}, {"measurement": "Reduction of VLDL-C", "setting": "[2]; C57B⅙ mice, cocoa butter diet, maximal reduction", "value": 45, "unit": "%"}, {"measurement": "Reduction of LDL-C", "setting": "[2]; hypercholesterolemic C57B⅙ mice on a high calorie diet", "value": 45, "unit": "%"}, {"measurement": "Accumulation of VLDL-TG after Triton WR1339 treatment", "setting": "C57B⅙ mice [3]; C57B⅙ mice, 40 mg/kg, versus vehicle", "value": "significantly less accumulation of VLDL-TG than vehicle-treated control mice"}, {"measurement": "Triglyceride, Pre-Triton WR 1339", "setting": "C57B⅙ mice [3]; apo e+/+ (C57B1/6), 40 mg/kg i.p. 7 days, 36 hour fast", "value": "124 ± 12 (n = 5) mg/dL"}, {"measurement": "Triglyceride, Post-Triton WR 1339", "setting": "C57B⅙ mice [3]; apo e+/+ (C57B1/6), 40 mg/kg i.p. 7 days, 36 hour fast, 4 hours after Triton WR1339", "value": "1031 ± 95 (n = 8) mg/dL"}]}]}
